# In US7910305B2, “Methods for screening for compounds that modulate insulin promoter activity” (The Burnham Institute for Medical Research, priority 2005, dated 2011):
# Peptide text beside a SMILES is read from it. * marks the point of attachment. Cbz = O=C(OCc1ccccc1)*
# Columns and labels:
# [1] = system: human insulin promoter-eGFP reporter in T6PN/E47MER cells; assay: insulin promoter-eGFP reporter fluorescence in T6PN/E47MER cells; format: cell-based; details: T6PN/E47MER cells infected with insulin promoter-eGFP lentiviral vector
# Excerpt: (§1) To increase the level of insulin expression, TRM-6 cells expressing PDX-1 and NeuroD1 (T6PN cells) (Follenzi et al., Nature Genet. 25:217-222, 2000) were infected with an E47^MER retroviral vector and selected by FACS. E47^MER consists of the class I bHLH factor E47 which is a potent insulin transactivator fused to a mutated estrogen receptor that renders it functional only in the presence of tamoxifen. […] To determine whether the effects of E47 were limited to insulin expression or had more general effects on beta-cell differentiation, a panel of other beta-cell genes was examined. […] Thus, T6PN/E47^MER cells express a substantial number of important beta-cell genes, making them an appropriate target for the insulin promoter screens described herein.
# Assay Protocol. The following is a detailed assay protocol for the primary assay, i.e., first assay performed in a testing scheme to identify biologically active chemical entities in a screening mode: […]
# insulin mRNA = assay: RT-PCR for endogenous insulin mRNA in T6PN/E47MER cells; format: cell-based, human
# Excerpt: (A) Insulin mRNA is barely detectable by non-quantitative RT-PCR in the absence of tamoxifen in two biological replicates of T6PN/E47^MER cells.
# Cells were exposed to 5 micromolar compound and also had 0.5 micromolar tamoxifen. […] […] Both GFP and insulin mRNA levels are normalized for GAPDH mRNA to rule out nonspecific effects of the compounds on transcription.
# as §1
# Second Confirmatory Assay. Compounds that passed the primary confirmatory assay were passed on for further testing in a secondary confirmatory assay. This consisted of RT-PCR of GFP and endogenous insulin mRNA (FIG. 7). Both GFP and endogenous insulin RT-PCR assays are performed because of the possibility that a compound may affect the 1.4 kb insulin promoter transgene but not the endogenous insulin promoter, which may be under more complex control.
# myosin heavy chain gene = assay: RT-PCR for myosin heavy chain gene in T6PN/E47MER cells; format: cell-based, human
# [2] = system: human insulin gene (hINS) promoter-eGFP reporter in MIN6 mouse insulinoma cells; assay: insulin promoter-destabilized eGFP reporter fluorescence in engineered MIN6 cells; format: cell-based; details: 384-well plates, three-fold titration series, imaged 48 hours after compound addition
# Excerpt: We have developed a screen for small molecule compounds that modulate insulin promoter activity. Identifying these compounds and eventually their targets should provide insights into the signaling pathways that control insulin expression. The assay is based upon a mouse insulinoma, MIN6, that normally expresses insulin mRNA. This cell was engineered to stably contain two cassettes that use a fluorescent reporter protein to monitor insulin promoter activity and a housekeeping gene activity. The primary assay is to detect compounds that alter expression of an insulin promoter-destabilized eGFP reporter cassette in mouse insulinoma (MIN6) cells relative to that of a housekeeping gene, heat shock protein 68, the promoter of which is used in a second cassette to direct expression of destabilized dsRED2. […]
# Engineering of MIN6 for Image-Based, High Throughput Screening. […] Viral supernatants harvested at 24 to 72 hours were 0.45 μm filtered and concentrated 100- to 200-fold by ultrafiltration using Centricon Plus-80 units (Millipore, Bedford, Mass., USA), yielding titers of approximately 10^9 transducing units (TU) per milliliter 5, determined by transduction of 293T cells with serial dilutions of the pRRL.SIN-18.cPPT.hPGK-EGFP.WPRE viral supernatant and FACS analysis to determine the percentage of EGFP-expressing cells. […]
Compound,eGFP induction [1],"insulin mRNA (RT-PCR), positive control (insulin mRNA; 4 micromolar tamoxifen control)","insulin mRNA by non-quantitative RT-PCR (insulin mRNA; T6PN/E47MER cells with versus without tamoxifen, two biological replicates)","insulin mRNA by quantitative real-time RT-PCR (insulin mRNA; T6PN/E47MER cells, E47 activity induced by tamoxifen, two biological replicates)",induction of insulin gene expression (insulin mRNA; induction of E47 activity (E47MER functional only with tamoxifen) in T6PN cells),myosin heavy chain gene induction (myosin heavy chain gene),eGFP fluorescence [2]
CC/C(=C(\c1ccccc1)c1ccc(OCCN(C)C)cc1)c1ccccc1 [tamoxifen],High levels of eGFP,maximum induction of insulin mRNA,strongly induced,dramatic upregulation of insulin mRNA,100 fold,not induced,
C[C@@H]1C[C@@H]([C@H](O)CC2CC(=O)NC(=O)C2)C(=O)[C@@H](C)C1 [cyclohexamide],,,,,,,decrease in fluorescence intensity
CC(C)C[C@@H](C=O)NC(=O)[C@H](CC(C)C)NC(=O)[C@H](CC(C)C)NC(=O)OCc1ccccc1 [MG132] (Cbz-Leu-Leu-Leu-aldehyde),,,,,,,dose-dependent increase in eGFP fluorescence
